The source of these data is patent US7309691B2, “Combined pharmaceutical preparation containing LHRH-analogous substances and anti estrogens for treating gynaecological disorders” (Achering Aktiengesellschaft, priority 1996, dated 2007).

The subject of series [1] is experimentally produced endometriosis (cystic endometriosis foci). Nature of the series: Experimentally produced endometriosis in the rat (transplanted endometrium fragments). Here is the method: Fragments of endometrium were transplanted into different regions of the abdominal cavity of 60 animals.
Four weeks later the development of the endometriosis (cystic endometriosis foci) was examined.
The animals were then treated for 4 weeks with the LHRH antagonists Antide (0.5 mg/animal every 3 days s.c.) and Raloxifen (3 mg/animal per day p.o.) in each case alone, or in a combination of the two compounds. At the end the size of the endometriosis foci before the beginning of the treatment was compared with the values after 4 weeks' treatment.
60 animals received the LHRH antagonist Antide and Raloxifen in parallel for the first 2 weeks and Raloxifen alone for the following 2 weeks. The doses were selected as in 1.1.
60 animals received the LHRH antagonist Antide for 2 weeks. On completion of the LHRH administration Raloxifen was then administered for 2 weeks.
Analogously to Example 1, treatment with LHRH antagonists Ac-D-Nal-D-Cpa-D-Pal-Ser-Tyr-D-Cit-Leu-Lys(Mor)-D-Ala-NH2 and Droloxifen was carried out on 40 animals.

The conditions of series [2]: women; literature; cited from earlier work.

For the molecule Antide, the endogenous oestrogen levels entry in series [1] (1.1: 4 weeks' treatment, alone) is given as “reduction in endogenous oestrogen levels corresponding to an ovariectomy”. In series [1] (1.1: 4 weeks' treatment, Antide 0.5 mg/animal every 3 days s.c., Raloxifen 3 mg/animal per day p.o., each alone or simultaneous combination), the “regression of the endometriosis foci (size before vs after treatment)” value is listed as “complete regression”. In series [1] (rat, in vivo), the osteoclast activity entry is “increase”.
Regarding `C#C[C@]1(O)CC[C@H]2[C@@H]3CCC4=Cc5oncc5C[C@]4(C)[C@H]3CC[C@@]21C` [danazol], the “side effects of treatment” value in series [2] is “androgenisation phenomena”.
